These results are taken from US12070445B2, “System and assay for monitoring production/release of membrane-lytic toxins in bacteria and compounds for modulating same” (priority 2021, dated 2024).

By IC50 is commonly meant the concentration that inhibits the measured activity by half.

“Also recorded” adds a separate entry of the source.

The first assay has as its system WT S. aureus (RN6390b). Briefly: Microtiter plate (96-well) vesicle lysis assay with WT S. aureus. Type of assay: cell-based. As to conditions: all compounds at 100 nM, 12 hr. As to the method:
(§1) Compound handling and preparation. OdDHL and BHL (Hodgkinson et al., 2011), S. aureus AIP and peptide derivatives 1-5 (Tal-Gan et al., 2013, Tal-Gan et al., 2016, Vasquez and Blackwell, 2019), and compounds 7-9 (Welsh and Blackwell, 2016a, Boursier et al., 2018, Manson et al., 2020) were synthesized using previously described methods. PQS and compound 6 were purchased from Millipore Sigma and AK Scientific respectively. Compounds were stored dry at −20° C. until needed and then dissolved in DMSO. DMSO stock solutions were prepared at concentrations that varied with compound potency and apparent solubility. Final in-well compound concentrations for 96-well vesicle lysis assays, unless noted otherwise, were: 10 μM for AIP, OdDHL, and PQS; 1 mM for BHL; 100 nM for 1-4; 10 μM for 5; 20 μM for 6; 100 μM for 7 and 8; and 200 μM for 9.
(§2) Production of phospholipid vesicles with encapsulated calcein. Large unilamellar vesicles (LUVs) were produced by adapting a freeze-thaw and vesicle extrusion procedure (Mayer et al., 1986). Briefly, stock solutions of phospholipids (DOPC, DPPC, DPPE, or cholesterol) in chloroform were mixed to the desired lipid compositions (70 mol % DOPC/30 mol % cholesterol for S. aureus vesicles or 68 mol % DPPC, 30 mol % cholesterol, 2 mol % DPPE for P. aeruginosa vesicles), and the chloroform was removed using an N2 stream or rotary evaporation followed by drying for at least one hour under vacuum. Self-quenching solutions of calcein were prepared by combining calcein and PBS or a specially prepared calcein buffer (1 mM EDTA, 10 mM Trisbase, and 100 mM NaCl; pH 8) to a calcein concentration of […]. The resulting solutions were titrated with 10 M aqueous NaOH until all calcein was dissolved and the solution reached pH 7.4 or pH 8 for PBS and the calcein buffer, respectively. The resulting calcein solutions were added to the dried phospholipid films (PBS for S. aureus formulations and the calcein buffer for the P. aeruginosa formulations) for a final lipid concentration of 5 mg/mL. The resulting lipid solutions were vortexed vigorously and briefly sonicated in a bath sonicator to form a turbid vesicle suspension. The vesicle suspensions were then freeze-thawed five times by alternately immersing them into an iPrOH/dry ice bath and a warm water bath (˜60° C.). Vesicles prepared for continuous time-course experiments were passed at least 5 times through a 100 nm polycarbonate filter using a Mini-prep extruder. Vesicles prepared for the high-throughput screen were passed through the filter 3 times. The resulting vesicles were then separated from external, unloaded calcein using a hand-packed Sephadex-G50 size exclusion chromatography column. The concentration of phospholipid in the solution was quantified using ^31P NMR (per the above protocol), and the phospholipid concentration was adjusted to 2 mM for unsaturated lipid solutions and 1 mM for saturated lipid solutions in their respective buffers. The resulting vesicles were characterized by dynamic light scattering and found to have a hydrodynamic diameter of ˜150 nm (FIGS. 3A-3C), which agrees with previous reports describing vesicle production using a similar method (Lapinski et al., 2007).
Microtiter plate vesicle lysis assays. Portions of media (2 or 10 mL) were inoculated with individual bacterial colonies and allowed to shake overnight. From these overnight cultures, subcultures were prepared by diluting the cultures 1:50 (v/v) in fresh BHI for S. aureus or 1:100 (v/v) in fresh LB for P. aeruginosa. An aliquot of each subculture (178 μL) was added to 20 μL of vesicle suspension and 2 μL of compound solution (dissolved in DMSO at 100× working concentration) in a clear-bottomed, black 96-well microtiter plate (Corning 3904). For controls, DMSO (vehicle) or Triton X-100 (1% final concentration) was substituted for compound. […]
For tr. AIP III D2A amide [Compound 4], the “calcein leakage with agr inhibitors at equivalent concentration” value (from here on “calcein leakage with agr inhibitors”) is “delayed response”.

Turning to tr. AIP III D2A [Compound 3], the “calcein leakage with agr inhibitors” value is given as “completely prevent calcein leakage”. Regarding AIP III D4A amide [Compound 2], the “calcein leakage with agr inhibitors” value is reported as “delayed response”.

For another assay, the system named is WT P. aeruginosa (PAO1-PGSC). In words: Microtiter plate (96-well) vesicle lysis assay with WT P. aeruginosa. Type of assay: cell-based. As to conditions: 10 μM OdDHL and PQS, 1 mM BHL, 200 μM 9. On the procedure:
as §1, §2
Microtiter plate vesicle lysis assays. Portions of media (2 or 10 mL) were inoculated with individual bacterial colonies and allowed to shake overnight. […]
Consider `CCCCCCCc1[nH]c2ccccc2c(=O)c1O` [PQS, Pseudomonas quinolone signal], for which the “effect on vesicle lysis / dye leakage (fluorescence over 12 hr)” value was “no observable influence on levels of fluorescence; also recorded: no observable effect”. The same measure, in the same setting: the value for `CCCC(=O)N[C@H]1CCOC1=O` [BHL, N-butyryl-Lhomoserine lactone] was “earlier onset of dye leakage; also recorded: facilitate vesicle lysis”; that for `CCCCCCCCCC(=O)CC(=O)N[C@H]1CCOC1=O` [OdDHL, N-(3-oxo-dodecanoyl)-L-homoserine lactone] was “no observable influence on levels of fluorescence; also recorded: no observable effect”.

In the next assay the test system is agr. In words: agr YFP transcriptional reporter assay (S. aureus AH1677 with pDB59). As to conditions: Staphylococcus aureus. The assay is classed as cell-based. On the procedure: Bacterial strains and culture. All bacteria were grown at 37° C. with 200 rpm shaking unless otherwise specified. S. aureus and P. aeruginosa were grown in BHI medium and LB medium, respectively. S. aureus AH1677 (with an agr-YFP reporter plasmid) and P. aeruginosa PAO1-PGSC (with a plasI-LVAgfp reporter plasmid) were used as QS transcriptional reporters and grown with 10 μg/mL chloramphenicol and 300 μg/mL carbenicillin, respectively. All other strains were grown without supplemental antibiotic. S. aureus RN6390b and P. aeruginosa PAO1-PGSC were used as WT strains in vesicle lysis experiments, while S. aureus RN9222 and P. aeruginosa PAO-JG35 were used as QS mutants. RN9222 was grown without antibiotic as it was not used as a reporter strain (i.e., it served only as QS mutant).
High-throughput screening and follow-up analysis protocols. Test compounds and positive control 1 were delivered in 2.5 nL aliquots of DMSO with an Echo 550 liquid handler (LabCyte Inc.) into black 384-well microtiter plates (Corning). All test compounds were tested at 10 μM; positive control 1 was tested at 250 nM. DMSO was used as a negative control. Overnight cultures (2 mL) of WT S. aureus (RN6390b) were grown at 37° C. with shaking at 200 rpm. These cultures were diluted 1:500 (v/v) in fresh BHI medium, at which point vesicle solutions were added to a final concentration of 1 mM phospholipid (as determined by ^31P NMR analyses). This vesicle-cell mixture was then added to the 384-well microtiter plates with a Multidrop 384 liquid-dispensing robot (Thermo Scientific) for a total volume of 50 μL per well. Plates were incubated statically for ˜24 hr at 37° C., at which point fluorescence (excitation 483, emission 530) and OD600 (absorbance at 600 nm) measurements were made using a CLARIOstarR Plus microtiter plate reader (BMG Labtech) running MARS data analysis software. Scatter plots were generated using the Collaborative Drug Discovery Vault informatics platform. The dose-response experiment using the vesicle lysis assay was performed in a 384-well plate in technical duplicate with compound concentrations of 0.1, 0.25, 0.5, 1, 2.5, 5, 10, and 20 μM. Dose-response curves were generated using variable slope (4 parameter) non-linear regression analysis for compound inhibition using GraphPad Prism software (v. 9). Analysis of the QS modulatory activity of the HTS hits and 6 (savirin) was performed using the S. aureus YFP transcriptional reporter strain. HTS hits were purchased directly from Life Chemicals, Inc. DMSO stock solutions (10 mM) of each compound were prepared and stored at −20° C. Serial dilutions (1:3) were prepared from the stock solutions in DMSO, and 2 μL aliquots of the resulting dilutions were added to the wells of black 96-well microtiter plates (Corning). Overnight cultures of the S. aureus reporter strain (2 mL) were grown at 37° C. with shaking at 200 rpm. Cultures were diluted 1:50 (v/v) into fresh BHI medium, and 198 μL of this diluted culture were added to each well containing compound, for a total volume of 200 μL per well. All plates contained a vehicle control consisting of 2 μL of DMSO and 198 μL of culture and a media control consisting of 200 μL BHI. Plates were incubated for ˜24 hours at 37° C. with shaking at 200 rpm. Fluorescence (excitation 510, emission 544) and OD600 measurements were acquired with a PerkinElmer EnVision microtiter plate reader running Envision Manager software. Background fluorescence from BHI control was subtracted from raw fluorescence reads, OD600 corrected, and finally normalized to vehicle control. Dose-response curves and IC50 values were generated using 3-parameter non-linear regression analysis for compound inhibition using GraphPad Prism software (v. 9). All compounds were tested in technical triplicate with at least 3 biological replicates.
Turning to `Cc1nn2c(C3CCC3)cc(C(=O)O)nc2c1-c1ccccc1` [Compound 14], inhibition was half-maximal at 980 nM (IC50). The molecule `CCCc1cc(C(=O)O)nc2c(-c3ccccc3)c(C)nn12` [Compound 12] came in with a half-maximal inhibitory concentration (IC50) of 2580 nM. Molecule `Cc1nn2c(C3CCCC3)cc(C(=O)O)nc2c1-c1ccccc1` [Compound 16] registered an IC50 of 840 nM. Same read-out and setting: for `Cc1nn2c(C(C)(C)C)cc(C(=O)O)nc2c1-c1ccccc1` [Compound 17] the value was 480 nM; for `CCc1cc(C(=O)O)nc2c(-c3ccccc3)c(C)nn12` [Compound 15], 7670 nM.

Molecule `Cc1nn2c(C3CC3)cc(C(=O)O)nc2c1-c1ccccc1` [Compound 13] registered a 50% inhibitory concentration (IC50) of 3350 nM.
